Experimental findings from paper PMC7398594 (Neurotoxicology, 2020) are described below.

What all share (type): cell-based, mouse
The test system of assay [1] is HEI-OC1 cells. The assay is described as follows: Mitochondrial membrane potential assay. The note with it: treated at compound IC50 value.
The test system of assay [2] is caspase-3/7 activity in HEI-OC1 cells. Nature of the assay: Caspase-3/7 luminescence assay. The settings on record: treated at compound IC50 value.
The subject of assay [3] is HEI-OC1 cells. The assay is described as follows: MTT cellular viability assay. The note with it: HEI-OC1 cell culture, ± standard deviation.
Assay [4] deals with HEI-OC1 cells. Nature of the assay: Reactive oxygen species assay. The note with it: 24 hours, treated at compound IC50 value.

For `N.N.[Cl][Pt][Cl]` [cisplatin], the entries for the “mitochondrial membrane polarization (FL1 to FL3 ratio), % of negative control” value in the assay with HEI-OC1 cells [1] (24 hours) and with HEI-OC1 cells [1] (48 hours) were 109% and 110%, respectively. In addition, the results for the “caspase-3/7 activity, % of negative control” value (“caspase-3/7 activity, %” for short) in assay [2] (24 hours) and in assay [2] (48 hours) were 86% and 352%, respectively. The values for the IC50 in the assay on HEI-OC1 cells [3] (24 Hr treatment) and with HEI-OC1 cells [3] (48 Hr treatment) were 1.66 ± 0.33 µM and 4.52 ± 0.17 µM, respectively. Moreover, the “ROS yield, % of negative control” value in the assay with HEI-OC1 cells [4] stood at 751%.

Consider `[NH3+][Pt-2]([NH3+])([Cl])[n+]1ccccc1` (stereo not drawn) [pyriplatin, cis-diammine (pyridine) chloroplatinum(II)], for which the “mitochondrial membrane polarization (FL1 to FL3 ratio), % of negative control” value is reported as 101% with HEI-OC1 cells [1] (24 hours) and 90% in the assay with HEI-OC1 cells [1] (48 hours). Moreover, the “caspase-3/7 activity, %” value in assay [2] (24 hours) came to 82%; in assay [2] (48 hours), 101%. The IC50 in the assay on HEI-OC1 cells [3] (24 Hr treatment) came out at 11.1 ± 0.28 µM; in the assay on HEI-OC1 cells [3] (48 Hr treatment) it was 2.52 ± 0.11 µM. Moreover, the “ROS yield, % of negative control” value in the assay on HEI-OC1 cells [4] is given as 618%.

Take `[NH3+][Pt-2]([NH3+])([Cl])[n+]1cc2ccccc2c2ccccc21` (stereo not drawn) [phenanthriplatin, cis-diammine (phenanthridine) chloroplatinum(II)]: the “mitochondrial membrane polarization (FL1 to FL3 ratio), % of negative control” value with HEI-OC1 cells [1] (24 hours) is 98%; in the assay on HEI-OC1 cells [1] (48 hours), 88%. The entries for the “caspase-3/7 activity, %” value in assay [2] (24 hours) and in assay [2] (48 hours) were 83% and 89%, respectively. Also, the IC50 amounted to 1.64 ± 0.19 µM with HEI-OC1 cells [3] (24 Hr treatment) and 2.31 ± 0.29 µM in the assay with HEI-OC1 cells [3] (48 Hr treatment). The “ROS yield, % of negative control” value with HEI-OC1 cells [4] came out at 741%.

For orientation: IC50 means the concentration needed to halve the response being measured.
